Data from US10988478B1, “Pyrazolo[1,5a]pyrimidine derivatives as IRAK4 modulators” (Genentech, Inc., priority 2015, dated 2021).

molecular target: human IRAK4 (Homo sapiens (Human), UniProt Q9NWZ3); experiment: IRAK4 kinase inhibition, Transcreener fluorescence polarization ADP assay; assay type: biochemical; details: recombinant full-length His6-IRAK4; 125 uM ATP; 90 min; Ki computed using ATP Km 642 uM
Procedure: Compounds were assayed for inhibition of human IRAK4 and IRAK1 catalytic activity using recombinant enzyme produced from insect cells. Full-length IRAK4 protein, carrying an N-terminal His6-Tag, was obtained from Life Technologies (Carlsbad, Calif., USA). The IRAK1 construct was produced internally and was comprised of IRAK1 residues Arg194 to Ser712, preceded by an NH2-terminal His6 tag and the coding sequence for glutathione-S-transferase.

human IRAK4, sequence (Q9NWZ3 whole entry, the tested form may be a part): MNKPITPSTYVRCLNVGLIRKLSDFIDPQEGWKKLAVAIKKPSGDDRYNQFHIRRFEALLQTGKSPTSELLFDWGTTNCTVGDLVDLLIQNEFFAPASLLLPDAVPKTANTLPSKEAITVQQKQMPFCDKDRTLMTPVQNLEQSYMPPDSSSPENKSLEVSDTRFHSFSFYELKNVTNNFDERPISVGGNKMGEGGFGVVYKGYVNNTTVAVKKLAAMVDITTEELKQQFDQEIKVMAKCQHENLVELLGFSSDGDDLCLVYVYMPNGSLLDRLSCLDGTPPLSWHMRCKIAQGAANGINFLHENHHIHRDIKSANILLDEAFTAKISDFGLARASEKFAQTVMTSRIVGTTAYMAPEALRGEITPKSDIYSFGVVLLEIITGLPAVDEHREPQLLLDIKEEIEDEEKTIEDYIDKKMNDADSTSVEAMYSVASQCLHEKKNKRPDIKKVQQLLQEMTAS

SMILES | Ki [nM]
O=C(Nc1cc2c(cc1N1CCOCC1)OCCN2)c1cnn2cccnc12 [Example 9, N-(7-Morpholino-3,4-dihydro-2H-benzo[b][1,4]oxazin-6-yl)pyrazolo[1,5-a]pyrimidine-3-carboxamide] | 98
CC1COc2cc(N3CCOCC3)c(NC(=O)c3cnn4cccnc34)cc2N1 (centres unmarked) [Example 10, N-(3-Methyl-7-morpholino-3,4-dihydro-2H-benzo[b][1,4]oxazin-6-yl)pyrazolo[1,5-a]pyrimidine-3-carboxamide] | 270
CC1CNc2cc(NC(=O)c3cnn4cccnc34)c(N3CCOCC3)cc2O1 (centres unmarked) [Example 11, N-(2-Methyl-7-morpholino-3,4-dihydro-2H-benzo[b][1,4]oxazin-6-yl)pyrazolo[1,5-a]pyrimidine-3-carboxamide] | 72
CC1Cc2cc(NC(=O)c3cnn4cccnc34)c(N3CCOCC3)cc2O1 (centres unmarked) [Example 14, N-(2-Methyl-6-morpholino-2,3-dihydrobenzofuran-5-yl)pyrazolo[1,5-a]pyrimidine-3-carboxamide] | 19
CC1(C)Cc2cc(NC(=O)c3cnn4cccnc34)c(N3CC[C@@H](CO)C3)cc2O1 [Example 15, (R)—N-(6-(3-(Hydroxymethyl)pyrrolidin-1-yl)-2,2-dimethyl-2,3-dihydrobenzofuran-5-yl)pyrazolo[1,5-a]pyrimidine-3-carboxamide] | 12
CC1(C)CN(c2cc3c(cc2NC(=O)c2cnn4cccnc24)CC(C)(CO)O3)CCO1 (centres unmarked) [Example 17, N-(6-(2,2-Dimethylmorpholino)-2-(hydroxymethyl)-2-methyl-2,3-dihydrobenzofuran-5-yl)pyrazolo[1,5-a]pyrimidine-3-carboxamide] | 180
CC1(CO)CCN(c2cc3c(cc2NC(=O)c2cnn4cccnc24)CC(C)(C)O3)C1 (centres unmarked) [Example 18, N-(6-(3-(Hydroxymethyl)-3-methylpyrrolidin-1-yl)-2,2-dimethyl-2,3-dihydrobenzofuran-5-yl)pyrazolo[1,5-a]pyrimidine-3-carboxamide] | 21
CNC[C@H]1OC[C@@H](c2cc3c(cc2NC(=O)c2cnn4cccnc24)CC(C)(C)O3)CO1 [Example 20, Cis-N-[2,2-dimethyl-6-[2-(methylaminomethyl)-1,3-dioxan-5-yl]-3H-benzofuran-5-yl]pyrazolo[1,5-a]pyrimidine-3-carboxamide] | 780
CN(C)C(=O)C1(C)Cc2cc(NC(=O)c3cnn4cccnc34)c(N3CCOCC3)cc2O1 (centres unmarked) [Example 23, N-(2-(Dimethylcarbamoyl)-2-methyl-6-morpholino-2,3-dihydrobenzofuran-5-yl)pyrazolo[1,5-a]pyrimidine-3-carboxamide] | 31
Cc1cnc2c(C(=O)Nc3cc4c(cc3N3CCOCC3)O[C@](C)(CO)C4)cnn2c1 [Example 30, (S)—N-(2-(hydroxymethyl)-2-methyl-6-morpholino-2,3-dihydrobenzofuran-5-yl)-6-methylpyrazolo[1,5-a]pyrimidine-3-carboxamide] | 32
COc1cc2c(cc1NC(=O)c1cnn3cccnc13)CC(C)(C)O2 [Example 34, N-(6-Methoxy-2,2-dimethyl-2,3-dihydrobenzofuran-5-yl)pyrazolo[1,5-a]pyrimidine-3-carboxamide] | 38
O=C(Nc1cc2c(cc1N1CCOCC1)OCCCN2)c1cnn2cccnc12 [Example 35, N-(8-Morpholino-2,3,4,5-tetrahydrobenzo[b][1,4]oxazepin-7-yl)pyrazolo[1,5-a]pyrimidine-3-carboxamide] | 690
CC1(C)CN(c2cc3c(cc2NC(=O)c2cnn4cccnc24)C[C@](C)(CO)O3)CCO1 [Example 36, (R)—N-(6-(2,2-dimethylmorpholino)-2-(hydroxymethyl)-2-methyl-2,3-dihydrobenzofuran-5-yl)pyrazolo[1,5-a]pyrimidine-3-carboxamide] | 150
CC1(C)CN(c2cc3c(cc2NC(=O)c2cnn4cccnc24)C[C@@](C)(CO)O3)CCO1 [Example 37, (S)—N-(6-(2,2-dimethylmorpholino)-2-(hydroxymethyl)-2-methyl-2,3-dihydrobenzofuran-5-yl)pyrazolo[1,5-a]pyrimidine-3-carboxamide] | 370
CC1(C(=O)O)Cc2cc(NC(=O)c3cnn4cccnc34)c(N3CCOCC3)cc2O1 (centres unmarked) [Example 38, 2-Methyl-6-morpholino-5-(pyrazolo[1,5-a]pyrimidine-3-carboxamido)-2,3-dihydrobenzofuran-2-carboxylicacid] | 360
CC1(C)Cc2cc(NC(=O)c3cnn4cccnc34)c(N3CCS(=O)(=O)CC3)cc2O1 [Example 41, N-[6-(1,1-Dioxo-thiomorpholin-4-yl)-2,2-dimethyl-2,3-dihydro-1-benzofuran-5-yl]pyrazolo[1,5-a]pyrimidine-3-carboxamide] | 84
C[C@]1(CO)Cc2cc(NC(=O)c3cnn4cccnc34)c(N3C[C@H]4C[C@@H]3CO4)cc2O1 [Example 42, N—((R)-6-((1R,4R)-2-Oxa-5-azabicyclo[2.2.1]heptan-5-yl)-2-(hydroxymethyl)-2-methyl-2,3-dihydrobenzofuran-5-yl)pyrazolo[1,5-a]pyrimidine-3-carboxamide] | 200
C[C@@]1(CO)Cc2cc(NC(=O)c3cnn4cccnc34)c(N3C[C@H]4C[C@@H]3CO4)cc2O1 [Example 43, N—((S)-6-((1R,4R)-2-Oxa-5-azabicyclo[2.2.1]heptan-5-yl)-2-(hydroxymethyl)-2-methyl-2,3-dihydrobenzofuran-5-yl)pyrazolo[1,5-a]pyrimidine-3-carboxamide] | 130
C[C@]1(CO)Cc2cc(NC(=O)c3cnn4cccnc34)c(N3C[C@@H]4C[C@H]3CO4)cc2O1 [Example 47, N—((R)-6-((1S,4S)-2-Oxa-5-azabicyclo[2.2.1]heptan-5-yl)-2-(hydroxymethyl)-2-methyl-2,3-dihydrobenzofuran-5-yl)pyrazolo[1,5-a]pyrimidine-3-carboxamide] | 180
CNC(=O)[C@]1(C)Cc2cc(NC(=O)c3cnn4cccnc34)c(N3CCOCC3)cc2O1 [Example 48, (S)—N-(2-Methyl-2-(methylcarbamoyl)-6-morpholino-2,3-dihydrobenzofuran-5-yl)pyrazolo[1,5-a]pyrimidine-3-carboxamide] | 190

Stronger by Ki, values ahead:

Ki [nM] | SMILES
2 | Cc1cnc2c(C(=O)Nc3cc4c(cc3N3CCC(CO)CC3)OC(C)(C)C4)cnn2c1 [Example 12, N-(6-(4-(Hydroxymethyl)piperidin-1-yl)-2,2-dimethyl-2,3-dihydrobenzofuran-5-yl)-6-methylpyrazolo[1,5-a]pyrimidine-3-carboxamide]
6.7 | CC1(C)Cc2cc(NC(=O)c3cnn4cccnc34)c(N3CC[C@H](CO)C3)cc2O1 [Example 13, (S)—N-(6-(3-(hydroxymethyl)pyrrolidin-1-yl)-2,2-dimethyl-2,3-dihydrobenzofuran-5-yl)pyrazolo[1,5-a]pyrimidine-3-carboxamide]
1.9 | Cc1cnc2c(C(=O)Nc3cc4c(cc3N3CCC(CO)CC3)OC(C)(CO)C4)cnn2c1 (centres unmarked) [Example 16, N-(2-(Hydroxymethyl)-6-(4-(hydroxymethyl)piperidin-1-yl)-2-methyl-2,3-dihydrobenzofuran-5-yl)-6-methylpyrazolo[1,5-a]pyrimidine-3-carboxamide]
3.3 | CC1(CO)Cc2cc(NC(=O)c3cnn4cccnc34)c(N3CCN(CC(F)F)CC3)cc2O1 (centres unmarked) [Example 19, N-[6-[4-(2,2-Difluoroethyl)piperazin-1-yl]-2-(hydroxymethyl)-2-methyl-3H-benzofuran-5-yl]pyrazolo[1,5-a]pyrimidine-3-carboxamide]
6.4 | CCC1(C)Cc2cc(NC(=O)c3cnn4cccnc34)c(N3CCOCC3)cc2O1 (centres unmarked) [Example 21, N-(2-Ethyl-2-methyl-6-morpholino-2,3-dihydrobenzofuran-5-yl)pyrazolo[1,5-a]pyrimidine-3-carboxamide]
2.9 | CC1(C)Cc2cc(NC(=O)c3cnn4cccnc34)c(N3CCC(C(N)C(F)(F)F)CC3)cc2O1 (centres unmarked) [Example 24, N-[6-[4-(1-Amino-2,2,2-trifluoro-ethyl)-1-piperidyl]-2,2-dimethyl-3H-benzofuran-5-yl]pyrazolo[1,5-a]pyrimidine-3-carboxamide]
10 | COCC1(C)Cc2cc(NC(=O)c3cnn4cccnc34)c(N3CCOCC3)cc2O1 (centres unmarked) [Example 25, N-(2-(Methoxymethyl)-2-methyl-6-morpholino-2,3-dihydrobenzofuran-5-yl)pyrazolo[1,5-a]pyrimidine-3-carboxamide]
5.1 | CC1(CO)Cc2cc(NC(=O)c3cnn4cccnc34)c(N3CCC(F)(F)CC3)cc2O1 (centres unmarked) [Example 26, N-[6-(4,4-Difluoro-1-piperidyl)-2-(hydroxymethyl)-2-methyl-3H-benzofuran-5-yl]pyrazolo[1,5-a]pyrimidine-3-carboxamide]
9 | Cc1cnc2c(C(=O)Nc3cc4c(cc3N3CCOCC3)O[C@@](C)(CO)C4)cnn2c1 [Example 29, (R)—N-(2-(hydroxymethyl)-2-methyl-6-morpholino-2,3-dihydrobenzofuran-5-yl)-6-methylpyrazolo[1,5-a]pyrimidine-3-carboxamide]
5 | CC1(C)Cc2cc(NC(=O)c3cnn4cccnc34)c(N3CCOCC3)cc2O1 [Example 33, N-(2,2-dimethyl-6-morpholino-2,3-dihydrobenzofuran-5-yl)pyrazolo[1,5-a]pyrimidine-3-carboxamide]
11 | O=C(Nc1cc2c(cc1N1CCOCC1)OC1(CCOCC1)C2)c1cnn2cccnc12 [Example 39, N-(6-Morpholino-2′,3′,5′,6′-tetrahydro-3H-spiro[benzofuran-2,4′-pyran]-5-yl)pyrazolo[1,5-a]pyrimidine-3-carboxamide]
1 | CC1(C)Cc2cc(NC(=O)c3cnn4cccnc34)c(N3CCC(F)(CO)CC3)cc2O1 [Example 40, N-(6-(4-Fluoro-4-(hydroxymethyl)piperidin-1-yl)-2,2-dimethyl-2,3-dihydrobenzofuran-5-yl)pyrazolo[1,5-a]pyrimidine-3-carboxamide]
